Source: ChEMBL document CHEMBL1201862, “PubChem BioAssay data set” (2004)
One block for each compound: values may come before it. Calls of active or inactive are those of the source.

Legend:
Paired box protein Pax-8 = Paired box protein Pax-8 (Homo sapiens, UniProt Q06710); test: inhibitors of PAX8-driven TPO luciferase reporter, dose response, RMG-I cells, cherry-pick (AID 687027); assay type: functional, cell-based;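 note: luciferase reporter driven by Pax8 target thyroperoxidase promoter measured by SteadyGlo luminescence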
Chain of Paired box protein Pax-8 (Q06710 whole entry): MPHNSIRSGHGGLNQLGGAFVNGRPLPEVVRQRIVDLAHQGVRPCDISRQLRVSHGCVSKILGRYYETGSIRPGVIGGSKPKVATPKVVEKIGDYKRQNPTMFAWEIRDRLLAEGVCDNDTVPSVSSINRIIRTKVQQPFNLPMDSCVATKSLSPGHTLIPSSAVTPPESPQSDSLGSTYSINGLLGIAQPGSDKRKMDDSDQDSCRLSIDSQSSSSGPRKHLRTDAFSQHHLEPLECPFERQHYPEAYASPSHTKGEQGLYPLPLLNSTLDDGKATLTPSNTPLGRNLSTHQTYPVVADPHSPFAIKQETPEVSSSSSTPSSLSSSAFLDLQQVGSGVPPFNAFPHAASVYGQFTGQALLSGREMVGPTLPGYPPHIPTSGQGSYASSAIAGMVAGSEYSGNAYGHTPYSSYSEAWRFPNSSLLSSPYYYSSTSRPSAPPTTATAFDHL

[1] = inhibitors of PGC1a acetylation in cells, dose response, cell-based, cherry-picked samples (AID 720514); assay type: functional;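 note: potency may reflect raised or lowered acetylation signal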
[2] = non-specific cell cytotoxicity, dose response, cytotoxicity control for PAX8 inhibitor project, plate reader, dry powder samples (AID 743021); assay type: functional, cell-based
[3] = molecular target: T1, Oxysterols receptor LXR-beta (Homo sapiens, UniProt P55055); assay type: functional, cell-based;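 note: Cell-based luminescence dose-response assay of agonist activity at LXR, run as a confirmatory counterscreen to a daf-12 agonist screen; HEK293 cells with Gal4-LXR fusion and GAL4-driven luciferase reporter; agonist potency from rising luciferase signal of a Gal4-LXR reporter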
T1 sequence (P55055 whole entry): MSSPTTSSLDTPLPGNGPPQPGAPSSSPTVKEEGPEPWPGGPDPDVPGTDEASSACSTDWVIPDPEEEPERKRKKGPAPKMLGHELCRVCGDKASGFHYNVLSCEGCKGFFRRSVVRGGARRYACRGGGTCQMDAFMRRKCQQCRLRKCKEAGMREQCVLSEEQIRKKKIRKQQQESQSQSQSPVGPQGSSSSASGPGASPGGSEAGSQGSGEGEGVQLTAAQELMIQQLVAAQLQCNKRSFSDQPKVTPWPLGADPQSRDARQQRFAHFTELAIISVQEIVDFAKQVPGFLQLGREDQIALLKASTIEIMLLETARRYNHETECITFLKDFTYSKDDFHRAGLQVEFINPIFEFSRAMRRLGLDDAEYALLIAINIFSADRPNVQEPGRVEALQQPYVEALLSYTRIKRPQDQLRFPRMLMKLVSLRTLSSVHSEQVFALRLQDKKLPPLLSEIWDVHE

cells [4] = test: cells
[5] = A549 cell cytotoxicity, dose response, cytotoxicity control, plate reader, cherry-pick, antagonist series (AID 743412); assay type: functional, cell-based
[6] = HepG2 cell cytotoxicity, dose response, cytotoxicity control, plate reader, cherry-pick, antagonist series (AID 743416); assay type: functional, cell-based
[7] = LGR2 antagonists, dose response, cell-based, HEK293, CRE-luciferase reporter, cherry pick, set 2 (AID 743343); assay type: functional;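 note: transfected cells were stimulated with diluted bursicon conditioned medium after compound addition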
[8] = HepG2 cell cytotoxicity, dose response, cytotoxicity control, ATP luminescence, cherry-pick, set 6 (AID 1053125); assay type: functional, cell-based
cells [9] = conditions: HEK293;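 note: cells exposed to compound for 48 hours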
HeLa = test: HeLa cell cytotoxicity, dose response, cytotoxicity control, ATP luminescence, cherry-pick samples (AID 687004); assay type: functional, cell-based; conditions: Homo sapiens
HEK293 = test: HEK293T cell cytotoxicity, dose response, cytotoxicity control, ATP luminescence, cherry-pick samples (AID 687005); assay type: functional, cell-based; conditions: Homo sapiens;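 note: cells exposed to compound for 48 hours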
[10] = HEK293 Cytotoxicity Assay Measured in Cell-Based System Using Plate Reader - 7071-01_Inhibitor_Dose_CherryPick_Activity_Set2.; assay type: functional
[11] = molecular target: T2, Scavenger receptor class B member 1 (Mus musculus, UniProt Q61009); test: inhibitors of SR-BI dependent HDL uptake, dose response, ldlA[mSR-BI] CHO cells, fluorescence plate reader, dry powder, set 9 (AID 623880); assay type: functional, cell-based
T2 sequence (Q61009 whole entry): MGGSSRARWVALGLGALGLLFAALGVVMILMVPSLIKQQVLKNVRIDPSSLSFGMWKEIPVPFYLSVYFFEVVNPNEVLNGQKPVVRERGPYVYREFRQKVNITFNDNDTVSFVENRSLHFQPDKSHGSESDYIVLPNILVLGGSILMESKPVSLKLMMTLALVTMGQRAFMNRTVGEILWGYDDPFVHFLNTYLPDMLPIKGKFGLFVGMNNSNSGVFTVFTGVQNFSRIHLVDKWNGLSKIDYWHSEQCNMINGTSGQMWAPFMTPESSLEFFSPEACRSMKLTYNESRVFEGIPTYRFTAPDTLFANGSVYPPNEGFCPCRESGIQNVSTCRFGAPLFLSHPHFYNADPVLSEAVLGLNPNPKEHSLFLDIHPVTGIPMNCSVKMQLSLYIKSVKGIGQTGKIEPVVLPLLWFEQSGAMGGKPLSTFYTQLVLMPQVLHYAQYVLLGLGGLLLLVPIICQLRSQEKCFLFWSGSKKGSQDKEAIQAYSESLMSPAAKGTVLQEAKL

[12] = molecular target: T2, Scavenger receptor class B member 1; test: inhibitors of SR-BI-mediated HDL uptake, dose response, cell-based, ldlA[mSR-BI] CHO, DiI fluorescence, dry powder, set 10 (AID 624029); assay type: functional
cells [13] = assay type: functional, cell-based
[14] = molecular target: T3, Trace amine-associated receptor 1 (Homo sapiens, UniProt Q96RJ0); test: Fluorescence-based cell-based high throughput dose response assay to identify agonists of the human trace amine associated receptor 1 (TAAR1).; assay type: functional
T3 sequence (Q96RJ0 whole entry): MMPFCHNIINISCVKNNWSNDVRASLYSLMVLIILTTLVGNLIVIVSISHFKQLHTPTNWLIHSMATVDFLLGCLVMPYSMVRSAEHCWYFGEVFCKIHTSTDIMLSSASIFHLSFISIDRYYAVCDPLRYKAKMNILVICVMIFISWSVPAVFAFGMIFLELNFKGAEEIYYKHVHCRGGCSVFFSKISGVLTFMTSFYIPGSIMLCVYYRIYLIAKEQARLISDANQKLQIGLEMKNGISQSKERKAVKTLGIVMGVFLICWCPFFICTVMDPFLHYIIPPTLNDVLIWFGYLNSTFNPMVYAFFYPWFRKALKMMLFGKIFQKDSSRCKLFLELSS

[15] = molecular target: T3, Trace amine-associated receptor 1; test: Counterscreen for agonists of the human trace amine associated receptor 1 (hTAAR1): Fluorescence-based cell-based high throughput dose response assay to identify hTAAR1 agonist that also desensitize TAAR1 receptor response.; assay type: functional
cells [16] = assay type: functional, cell-based; remark: listed apart in the source
[17] = IGROV1 ovarian cancer cell cytotoxicity, dose response, PAX8 inhibitor project, plate reader, dry powder samples (AID 743043); assay type: functional, cell-based; conditions: IGROV-1
[18] = cytotoxicity in OVCAR8 ovarian cancer cells, dose response, PAX8 project, cell-based, plate reader, dry powder samples (AID 743197); assay type: functional; conditions: OVCAR-8
[19] = HIV Env cell-cell fusion inhibitors, dose response, HIV entry, plate reader, dry powder (AID 687023); assay type: functional, cell-based
cells [20] = conditions: A549

SMILES: CC(C)CN1CCN(C(=O)COC(=O)c2ccc(S(C)(=O)=O)c([N+](=O)[O-])c2)CC1
- AC50 (Paired box protein Pax-8): 13 µM (active)
- AC50 [1]: 10.6 µM (active)
- AC50 [2]: 22.7 µM (active)

SMILES: NC(=O)c1c(NC(=O)c2ccccc2)sc2c1CCCC2
- EC50 [3]: > 67.6 µM (inactive)
- EC50 (cells [4]): > 67.6 µM (inactive)

SMILES: CCCCn1nnnc1C(c1cc2ccccc2o1)N1CCN(c2ccncc2)CC1 (configuration not stated)
- AC50 [5]: 32.6 µM (active)
- AC50 [6]: > 52 µM (inactive)
- AC50 [7]: 40.1 µM (active)

SMILES: COc1ccc(CNC(=O)c2sc(=O)n(Cc3ccc(C)cc3)c2C)cc1OC
- AC50 [8]: > 52 µM (inactive)
- AC50 (cells [9]): > 52 µM (inactive)

SMILES: C[C@H]1CN([C@@H](C)CO)C(=O)Cc2cc(NC(=O)CCCCCC(=O)Nc3ccccc3N)ccc2O[C@H]1CN(C)Cc1ccc2c(c1)OCO2
- AC50 (HeLa): 51.7 µM (active)
- AC50 (HEK293): 22.8 µM (active)
- AC50 [10]: 22.8 µM (active)

- AC50 [11]: > 70 µM (inactive)
- AC50 [12]: > 70 µM (inactive)
SMILES: C[C@@H]1CN([C@H](C)CO[Si](C)(C)C(C)(C)C)C(=O)c2cc(NC(=O)C3CCCCC3)ccc2O[C@H]1CN(C)C(=O)c1ccc(Cl)cc1

SMILES: COC(=O)[C@]12C[C@H](CC(=O)NCCc3ccccc3OC)C(=O)N(Cc3ccccc3)C1=C[C@H](C(C)(C)C)O[C@@H]2C
- IC50 (cells [13]): > 29.9 µM (inactive)
- EC50 [14]: 2.45 µM (active)
- IC50 [15]: 7.35 µM (active)
- EC50 (cells [16]): > 29.9 µM (inactive)

SMILES: C[C@@H]1CN([C@H](C)CO)S(=O)(=O)c2ccc(-c3ccccc3)cc2O[C@H]1CN(C)C(=O)C1CCCCC1
- AC50 (HeLa): > 52 µM (inactive)
- AC50 (HEK293): 16.2 µM (active)
- AC50 [10]: 16.2 µM (active)

SMILES: C[C@@H]1CCCCO[C@@H](CN(C)Cc2ccc(C(F)(F)F)cc2)[C@H](C)CN([C@@H](C)CO)C(=O)c2cc(NS(=O)(=O)c3ccc(F)cc3)ccc2O1
- AC50 (Paired box protein Pax-8): 5.83 µM (active)
- AC50 [17]: 55.8 µM (active)
- AC50 [18]: > 70 µM (inactive)

SMILES: Cc1noc(C)c1S(=O)(=O)Nc1cccc2c1O[C@@H](CN(C)Cc1ccc(C(F)(F)F)cc1)[C@@H](C)CN([C@@H](C)CO)C2=O
- AC50 [19]: 53.5 µM (active)

SMILES: O=[N+]([O-])c1cccc(Nc2c3ccccc3nc3ccccc23)c1
- AC50 (cells [20]): 46.4 µM (active)
